{"source": "patent US11707474B2", "about": "“Methods for treating acute myeloid leukemia and related conditions” (GlycoMimetics, Inc., priority 2018, dated 2023)", "key": {"[1]": {"system": "relapsed/refractory (R/R) AML", "test": "Exposure-response analysis for efficacy", "type": "in vivo, human", "conditions": "46 R/R AML subjects; 5, 10, 20 mg/kg BID with MEC", "protocol": "To generate exposure metrics for the analyses in Example 14 and Example 15, a Pop-PK analysis, based on sampling of plasma concentrations (Cp) of the compound of Formula (I) during induction treatment, was conducted to identify an appropriate PK model, key covariates of the model, and to generate post hoc population PK metrics for all patients sampled for PK. The Pop-PK analysis comprised 59 subjects, 46 subjects diagnosed with relapsed/refractory (R/R) AML who were administered a compound of Formula (I) with MEC chemotherapy and 13 older subjects (aged 60 years or older) with newly diagnosed AML who were administered a compound of Formula (I) with 7+3 chemotherapy. Pop-PK modeling identified a three compartment model with renal function as the only significant covariate.\nFor Example 14, Exposure-Response (“E-R”) analysis evaluating efficacy measures against PK metrics was conducted using clinical response efficacy data from the 46 R/R AML subjects. R/R AML subjects were administered MEC chemotherapy and 5, 10, and 20 mg/kg of a compound of Formula (I) BID (i.e. 10, 20, and 40 mg/kg per day).\nExposure metrics were generated using the Pop-PK model described above.\nUsing clinical measures of efficacy described in Example 13 each subject was assigned to one of five clinical response categories: CR, CRi, MLFS, PD, and death. […]"}, "[2]": {"test": "Exposure-response analysis for adverse events", "type": "in vivo, human", "conditions": "53 R/R and 25 newly diagnosed older AML subjects, with chemotherapy", "protocol": "For Example 15, Exposure-Response (“E-R”) analysis evaluating adverse events against PK metrics was conducted. The sample population for Example 15 included 53 subjects with relapsed/refractory (R/R) AML and 25 older subjects (aged 60 years or older) with newly diagnosed AML. R/R AML subjects were administered MEC chemotherapy and 5, 10, and 20 mg/kg of a compound of Formula (I) BID (i.e., 10, 20, and 40 mg/kg per day). The older subjects (aged 60 years or older) with newly diagnosed AML were administered 7+3 chemotherapy and 10 mg/kg of a compound of Formula (I) BID (i.e., 20 mg/kg per day).\nExposure metrics for the adverse events (“AE”) analysis were generated using the same Pop-PK model described in Example 14. […] Cumulative AUC was determined through each study day. For each metric/day combination, percentile rankings and normalized values were determined. For example, the median of Day 6 AUC values was determined, and normalized values were obtained by dividing each value by the median. In addition, these Day 6 AUC values were ranked, and then multiplied by 100% divided by the number of values to obtain a percentile value.\nAdverse events (“AEs”) were classified according the Common Terminology Criteria for Adverse Events (“CTCAE”). […]"}, "U937": {"system": "U937", "test": "Systemic U-937 AML mouse survival model", "type": "in vivo, NOD/SCID mouse", "protocol": "A compound of Formula (I) in combination with cytarabine/DNR chemotherapy was evaluated in the systemic U-937 AML NOD/SCID mouse survival model.\nThe U937 cell line was chosen because the cells express the E-selectin ligand and react with antibody HECA-452. After engraftment, mice were randomized into 4 groups (n=10/group) and treatment was initiated. The groups included a saline control group; a group administered the compound of Formula (I) at 40 mg/kg BID (i.e., 80 mg/kg per day) for 9 days, a group administered cytarabine at 300 mg/kg QD (i.e., 300 mg/kg per day) for 3 days and a single dose of DNR at 3 mg/kg; and a group administered the combined regimen of the compound of Formula (I) and chemotherapy (cytarabine and DNR)."}, "human AML blasts": {"system": "human AML blasts", "test": "Orthotopic model of human AML with cytarabine and DNR", "type": "in vivo, NOD-SCID mice", "protocol": "The impact of a compound of Formula (I) on survival was evaluated in NOD-SCID mice in an orthotopic model of human AML in combination with cytarabine and DNR.\n10 mg/kg per day was identified as the minimally active murine dose that augmented cytarabine and DNR survival benefits."}, "KG1 cells": {"system": "KG1 cells", "test": "Systemic KG1 AML model survival", "type": "in vivo, NSG female mice", "protocol": "The potential relevance of these in vitro observations was assessed in NSG female mice with pre-existing disseminated KG1 cells and treated with a compound of Formula (I) (40 mg/kg, IP, QD for 14 days), 5-azacytidine (5 mg/kg, IP, administered on days 7, 10, 13, 16, and 19 (5 doses total)), or the combination of both compounds. Under the conditions of the assay, the median survival time of mice treated with saline alone or a compound of Formula (I) was 69.5 and 69 days, respectively (FIG. 9). Administration of a compound of Formula (I) with 5-azacytidine increased median survival time beyond that obtained with 5-azacytidine treatment alone (>104 days versus 88 days; P=0.014, FIG. 9)."}}, "data": [{"smiles": "CC[C@@H]1CC(C(=O)NCCNC(=O)CCOCCOCCOCCOCCOCCOCCOCCOCCOCCOCCOCCOC)C[C@@H](O[C@@H]2O[C@@H](CO)[C@H](O)C(O[C@@H](CC3CCCCC3)C(=O)O)C2NC(C)=O)C1OC1O[C@@H](C)C(O)[C@H](O)[C@@H]1O", "note": "(stereo partly shown) [compound of Formula (I)]", "values": [{"measurement": "exposure-response for remission (Fx > IC50, Fx > IC90, Cmax, AUC vs response category)", "setting": "[1]", "result": "significant overlap in all exposure-response metrics relating to remission for those subjects attaining CR and those with PD"}, {"measurement": "adverse events vs exposure (AUC, cumulative AUC, Cmax)", "setting": "[2]", "result": "no strong tendency toward increased AEs, nor increased severity of AEs with exposure"}, {"measurement": "survival", "setting": "U937; 40 mg/kg BID 9 days alone", "result": "does not extend survival beyond saline control"}, {"measurement": "median survival time (MST)", "setting": "U937; 40 mg/kg BID 9 days combined with cytarabine/DNR", "result": "greater than 120 days"}, {"measurement": "animals surviving to the end of the study", "setting": "U937; 40 mg/kg BID 9 days combined with cytarabine/DNR, n=10/group", "result": "five"}, {"measurement": "tumor cell chemosensitivity as determined by circulating leukemic cells", "setting": "human AML blasts; 5 mg/kg BID 10 days with cytarabine and DNR", "result": "marked enhancement of tumor cell chemosensitivity"}, {"measurement": "numbers of AML blasts vs cytarabine and DNR alone", "setting": "human AML blasts; 40 mg/kg with cytarabine and DNR", "result": "fewer numbers of AML blasts"}, {"measurement": "minimally active murine dose that augmented cytarabine and DNR survival benefits", "setting": "human AML blasts; with cytarabine and DNR", "result": 10, "unit": "mg/kg per day"}, {"measurement": "median survival time", "setting": "KG1 cells; 40 mg/kg IP QD 14 days alone", "result": 69, "unit": "days"}, {"measurement": "median survival time", "setting": "KG1 cells; 40 mg/kg IP QD 14 days with 5-azacytidine", "result": "> 104", "unit": "days"}]}]}
